Experimental data reported in US20100305124A1, “Acylated Aminopyridine and Aminopyridazine Insecticides” (BAYER CROPSCIENCE AG, priority 2009, published 2010).

Test system: green peach aphid (Myzus persicae)
Test: Myzus test (MYZUPE), sprayed aubergine plants
Type: in vivo
Settings: application rate of 500 ppm, spray on aubergine plants, read-out: effect in % (aphids killed)
Procedure, shortened: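 Aubergine plants infested with all aphid stages sprayed with active ingredient in DMF/polyoxyethylenealkyl phenyl ether emulsifier, diluted with water to the test concentration. After the set time, mortality scored in %, where 100% means all aphids killed and 0% none.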

SMILES | pest or weed control at 500 ppm
COc1cc(OC)nc(COc2cccc(C(=O)N(C)c3cccnc3)c2)n1 [I-207] | ≥ 80%
CCN(C(=O)c1cccc(OCc2nc(OC)cc(OC)n2)c1)c1cccnc1 [I-208] | ≥ 80%
CCCNc1ccc(C(=O)Nc2cccnc2)cn1 [I-209] | ≥ 80%
O=C(Nc1cccnc1)c1ccc(NCC2CC2)nc1 [I-210] | ≥ 80%
O=C(Nc1cccnc1)c1ccc(N2CCOCC2)nc1 [I-212] | ≥ 80%
CS(=O)(=O)c1ccc(Oc2ccc(C(=O)Nc3cccnc3)cn2)cc1 [I-217] | ≥ 80%
Cc1nc(Sc2ccc(C(=O)Nc3cccnc3)cn2)nc(C)c1C [I-218] | ≥ 80%
CCN(C(=O)c1ccc(Oc2ccc(-n3cncn3)cc2)nc1)c1cccnc1 [I-219] | ≥ 80%
CCN(C(=O)c1ccc(Sc2nc(C)c(C)c(C)n2)nc1)c1cccnc1 [I-220] | ≥ 80%
CCN(C(=O)c1ccc(Oc2cccc(C(F)(F)F)c2)nc1)c1cccnc1 [I-221] | ≥ 80%
Cc1cc(C)nc(Sc2ccc(C(=O)N(C)c3ccnnc3)cn2)n1 [I-222] | ≥ 80%
O=C(Nc1cccnc1)c1ccc(NCCN2CCOCC2)nc1 [I-223] | ≥ 80%
C=CCN(C(=O)c1ccc(Sc2nc(C)cc(C)n2)nc1)c1cccnc1 [I-224] | ≥ 80%
C#CCN(C(=O)c1ccc(Sc2nc(C)cc(C)n2)nc1)c1cccnc1 [I-225] | ≥ 80%
CC#CCN(C(=O)c1ccc(Sc2nc(C)cc(C)n2)nc1)c1cccnc1 [I-226] | ≥ 80%
Cc1cc(C)nc(Sc2ccc(C(=O)N(Cc3ccccc3)c3cccnc3)cn2)n1 [I-227] | ≥ 80%
Cc1cc(C)nc(Sc2ccc(C(=O)N(Cc3ccc(C#N)cc3)c3cccnc3)cn2)n1 [I-228] | ≥ 80%
Cc1cc(C)nc(Sc2ccc(C(=O)N(Cc3ccc([N+](=O)[O-])cc3)c3cccnc3)cn2)n1 [I-229] | ≥ 80%

SMILES | pest or weed control at 500 ppm
Cc1cc(C)nc(Sc2ccc(C(=O)N(Cc3ccc(OC(F)(F)F)cc3)c3cccnc3)cn2)n1 [I-230] | ≥ 80%
C=CCN(C(=O)c1ccc(Cl)nc1)c1cccnc1 [I-231] | ≥ 80%
C#CCN(C(=O)c1ccc(Cl)nc1)c1cccnc1 [I-232] | ≥ 80%
CN(C(=O)c1ccc(/C=N/C2CCCC2)cc1)c1cccnc1 [I-233] | ≥ 80%
CC(C)O/N=C/c1ccc(C(=O)N(C)c2cccnc2)cc1 [I-234] | ≥ 80%
CCN(C(=O)c1ccc(/C=N/OC(C)C)cc1)c1cccnc1 [I-236] | ≥ 80%
CC(=O)N(Cc1ccc(C(=O)N(C)c2cccnc2)cc1)CC(C)C [I-238] | ≥ 80%
CCN(C(=O)c1ccc(C(=O)OC)cc1)c1cccnc1 [I-241] | ≥ 80%
CN(CCC#N)C(=O)c1ccc(C(=O)Nc2cccnc2)cc1 [I-244] | ≥ 80%
CN(C(=O)c1ccc(N(C)C(=O)C(F)(F)Cl)cc1)c1cccnc1 [I-245] | ≥ 80%
CCN(C(=O)c1ccc(N(C)C(=O)C(F)(F)Cl)cc1)c1cccnc1 [I-246] | ≥ 80%
CCN(CC)C(=O)c1ccc(C(=O)Nc2cccnc2)cc1 [I-250] | ≥ 80%
CCN(CC)C(=O)c1ccc(C(=O)N(CC)c2cccnc2)cc1 [I-251] | ≥ 80%
CC(=O)N(C)c1ccc(C(=O)Nc2cccnc2)cc1 [I-252] | ≥ 80%
CC(=O)N(C)c1ccc(C(=O)N(C)c2cccnc2)cc1 [I-253] | ≥ 80%
CCN(C(=O)c1ccc(N(C)C(C)=O)cc1)c1cccnc1 [I-254] | ≥ 80%
CN(C(=O)c1ccc(C(=O)NCc2ccccc2)cc1)c1cccnc1 [I-255] | ≥ 80%

Same assay, conditions: read-out: effect in % (aphids killed)

SMILES | pest or weed control at 500 ppm
CN(C(=O)c1ccc(N(C)C(=O)C(F)(F)C(F)(F)C(F)(F)F)cc1)c1cccnc1 [I-247] | ≥ 80%
CCN(C(=O)c1ccc(N(C)C(=O)C(F)(F)C(F)(F)C(F)(F)F)cc1)c1cccnc1 [I-248] | ≥ 80%

Test system: green peach aphid (Myzus persicae)
Test: Myzus test (MYZUPE spray treatment), Chinese cabbage leaf discs
Type: in vivo
Settings: foliar, application rate of 20 g/ha, spray on Chinese cabbage discs, read-out: effect in % (aphids killed)
Experimental: Myzus Test (MYZUPE Spray Treatment)
Solvents: 78 parts by weight of acetone • • 1.5 parts by weight of dimethylformamide Emulsifier: 0.5 part by weight of alkylaryl polyglycol ether
An appropriate preparation of active ingredient is prepared by mixing 1 part by weight of active ingredient with the stated amounts of solvents and emulsifier and diluting the concentrate with emulsifier-containing water to the desired concentration.
Discs of Chinese cabbage (Brassica pekinensis) infested with all stages of the green peach aphid (Myzus persicae) are sprayed with a preparation of active ingredient at the desired concentration.
After the desired time, the effect in % is determined. Here, 100% means that all of the aphids have been killed; 0% means that no aphids have been killed.

SMILES | pest or weed control at 20 g/ha
Cc1ncccc1-n1ncc(C(=O)Nc2cccnc2)c1C [I-2] | ≥ 80%

Same assay, conditions: foliar, application rate of 500 g/ha, spray on Chinese cabbage discs, read-out: effect in % (aphids killed)

SMILES | pest or weed control at 500 g/ha
O=C(Nc1cccnc1)c1cnn(CC(F)(F)F)c1-c1cnccn1 [I-257] | ≥ 80%
O=C(Nc1cccnc1)c1ccc(F)c(C(F)(F)F)c1 [I-258] | ≥ 80%
CN(C(=O)c1ccc(F)c(C(F)(F)F)c1)c1cccnc1 [I-259] | ≥ 80%
COc1ccc(C(=O)N(C)c2cccnc2)cc1OC [I-260] | ≥ 80%
CN(C(=O)c1ccc2c(c1)OC(F)(F)O2)c1cccnc1 [I-261] | ≥ 80%
CN(C(=O)c1cccc(C(F)(F)F)c1)c1cccnc1 [I-262] | ≥ 80%
COc1ccc(C(=O)Nc2cccnc2)cc1OC [I-263] | ≥ 80%
O=C(Nc1cccnc1)c1ccc(OC(F)(F)F)cc1 [I-264] | ≥ 80%
CN(C(=O)c1ccc(OC(F)(F)F)cc1)c1cccnc1 [I-266] | ≥ 80%
CN(C(=O)c1cnn(-c2ncccn2)c1C(F)(F)F)c1cccnc1 [I-268, 1-Pyrimidin-2-yl-5-trifluoromethyl-1H-pyrazole-4-carboxylic acid methylpyridin-3-ylamide] | ≥ 80%
CN(C(=O)c1cnn(CC(F)(F)F)c1C(F)F)c1cccnc1 [I-269] | ≥ 80%
COCc1c(C(=O)N(C)c2cccnc2)cnn1CC(F)(F)F [I-270] | ≥ 80%
CN(C(=O)c1cnn(-c2ccccc2Cl)c1C(F)(F)F)c1cccnc1 [I-271] | ≥ 80%
CN(C(=O)c1cnn(-c2ncccc2Cl)c1C(F)(F)F)c1cccnc1 [I-272] | ≥ 80%
COCc1c(C(=O)N(C)c2cccnc2)cnn1-c1ncccn1 [I-273] | ≥ 80%
CN(C(=O)c1cnn(-c2ncccn2)c1C(F)F)c1cccnc1 [I-274] | ≥ 80%
COC(C)c1c(C(=O)N(C)c2cccnc2)cnn1CC(F)(F)F (centres unmarked) [I-275] | ≥ 80%
COC(C)c1c(C(=O)N(C)c2cccnc2)cnn1-c1ncccn1 (centres unmarked) [I-276] | ≥ 80%
CN(C(=O)c1cnn(-c2ncccn2)c1C(C)(F)F)c1cccnc1 [I-277] | ≥ 80%
CN(C(=O)c1csc(-c2ncccc2Cl)n1)c1cccnc1 [I-278] | ≥ 80%
CC(C)Oc1ccc(C(=O)N(C)c2cccnc2)cc1-n1ccc(C(F)(F)F)n1 [I-279] | ≥ 80%
COc1ccc(C(=O)N(C)c2cccnc2)cc1-n1cccn1 [I-280, 4-Methoxy-N-methyl-3-pyrazol-1-yl-N-pyridin-3-ylbenzamide] | ≥ 80%

SMILES | pest or weed control at 500 g/ha
Cn1cc(C(=O)Nc2ccnnc2)c(C(F)(F)F)n1 [I-281] | ≥ 80%
O=C(Nc1cccnc1)c1cnn(CC(F)(F)F)c1C(F)(F)F [I-282] | ≥ 80%
CC(=O)Nc1cccc(C(=O)N(C)c2cccnc2)c1 [I-283] | ≥ 80%
CC(C)n1ncc(C(=O)Nc2cccnc2)c1C(F)(F)F [I-285] | ≥ 80%
CC(C)C(=O)Nc1cccc(C(=O)Nc2cccnc2)c1 [I-286] | ≥ 80%
CCn1ncc(C(=O)Nc2cccnc2)c1C(F)(F)F [I-287] | ≥ 80%
Cc1ccc(C(=O)Nc2cccnc2)cc1NC(=O)C1CC1 [I-292] | ≥ 80%
COc1ccc(C(=O)Nc2cccnc2)cc1NC(=O)C1CC1 [I-293] | ≥ 80%
COc1ccc(C(=O)N(C)c2cccnc2)cc1[N+](=O)[O-] [I-294] | ≥ 80%
Cc1ccc(C(=O)N(C)c2cccnc2)cc1[N+](=O)[O-] [I-295] | ≥ 80%
COc1ccc(C(=O)N(C)c2cccnc2)cc1NC(=O)C(C)C [I-297] | ≥ 80%
CC(C)C(=O)Nc1cc(C(=O)N(C)c2cccnc2)ccc1F [I-298] | ≥ 80%
CC(C)C(=O)Nc1cc(C(=O)N(C)c2cccnc2)ccc1Cl [I-299] | ≥ 80%
Cc1ccc(C(=O)N(C)c2cccnc2)cc1NC(=O)C(C)C [I-300, 3-Isobutyrylamino-4,N-dimethyl-N-pyridin-3-ylbenzamide] | ≥ 80%
CN(C(=O)c1ccc(F)c(NC(=O)C2CC2)c1)c1cccnc1 [I-301] | ≥ 80%
CN(C(=O)c1ccc(Cl)c(NC(=O)C2CC2)c1)c1cccnc1 [I-302] | ≥ 80%
COc1ccc(C(=O)N(C)c2cccnc2)cc1NC(=O)C(C)(C)C [I-303] | ≥ 80%
Cc1ccc(C(=O)N(C)c2cccnc2)cc1NC(=O)C(C)(C)C [I-305] | ≥ 80%
CC(=O)Nc1cc(C(=O)N(C)c2cccnc2)ccc1Cl [I-307] | ≥ 80%
CC(=O)Nc1cc(C(=O)N(C)c2cccnc2)ccc1C [I-308] | ≥ 80%
CCC(=O)Nc1cc(C(=O)N(C)c2cccnc2)ccc1C [I-310] | ≥ 80%

Same assay, conditions: foliar, application rate of 500 ppm, spray on Chinese cabbage discs, read-out: effect in % (aphids killed)

SMILES | pest or weed control at 500 ppm
CC(C)C(=O)Nc1cccc(C(=O)N(C)c2cccnc2)c1 [I-284] | ≥ 80%
CN(C(=O)c1ccc(S(C)(=O)=O)c(N)c1)c1cccnc1 [I-296] | ≥ 80%
